Reference: patent US4497812A, “2-Amino-5-aminomethyl-2-oxazolines, compositions and use” (Societe Cortial, S.A., priority 1982, dated 1985)
Like-named read-outs stand apart in the source and are kept apart here.

Tests used:
in vivo = conditions: mouse, mice, read-out: Percentage of mortality
Method: The toxicity was determined in mice for various ways of administraion.

rats [1] = assay: antiallergic activity, cutaneous passive anaphylaxis test; assay type: in vivo
Method: The antiallergic activity was determined in rats in the cutaneous passive anaphylaxis test. The animals sensitized by an intradermic injection of IgE immediately received, after administration of the product to be tested, an intravenous injection of ovalbumin and Evans blue. The products of Examples 3 and 4 caused, at 10 mg/kg, 53 and 60% respectively inhibition of the Evans blue spot.

[2] = test system: right auricle of a guinea pig stimulated electrically; assay: positive inotropic activity in vitro; assay type: cell-based; conditions: Cavia porcellus; 100 microg/ml; read-out: increase of the auricle contractile force
Method: The positive inotropic activity was determined in vitro on the right auricle of a guinea pig stimulated electrically.

[3] = test system: right auricle of a guinea pig beating spontaneously; assay: antihistaminic activity antiH2 in vitro, histamine-induced chronotropic effect; assay type: cell-based; conditions: for intrinsic chronotropic effect / inhibition at 100 µg/mL: 100 microg/ml
Method: Antihistaminic activity antiH2 was determined in vitro on the right auricle of a guinea pig beating spontaneously.

rats [4] = assay: diuretic activity, sodium excretion; assay type: in vivo; conditions: 20 mg/kg per os
Method: The diuretic activity was determined in rats subjected to a hydric regimen and evaluated by the ratio of sodium excreted in the treated animals to the sodium excreted in control animals. The products of Examples 3 and 7 multiplied the sodium excretion by 4.2 and 4.9 respectively at a dose of 20 mg/kg per os.

mice = assay: hypocholesterolemic activity, regimen rich in cholesterol and cholic acid; assay type: in vivo; conditions: 400 mg/kg per os
Method: The hypocholesterolemic activity was determined in mice subjected to a regimen rich in cholesterol and cholic acid for 7 days. After administration per os of the production of Example 6 in a dose of 400 mg/kg, a 21% reduction of cholesterolemia was noted on the 6th and 7th days. This drop in cholesterolemia was accompanied by a 20% reduction of the […] fraction, the HDL/cholesterol ratio being equal to 1.01.

ulcerigenic effect = assay type: in vivo; conditions: 200 mg/kg per os
guinea pig ileum [5] = assay: antihistaminic activity antiH1 in vitro, contractions induced by histamine; assay type: cell-based; conditions: Cavia porcellus
Method: The antihistaminic activity antiH1 was determined in vitro on guinea pig ileum.

rats [6] = assay: carrageenan edema test; assay type: in vivo; conditions: 100 mg/kg per os, after 4 hours
Text: The antiinflammatory activity was brought out in the carrageenan edema test in rats.

rats [7] = assay: stress ulcer test; assay type: in vivo; conditions: 25 mg/kg per os
Text: The antiulcerigenic activity was shown in the stress ulcer test.

guinea pig ileum [8] = assay: contractions induced by serotinin in vitro; assay type: cell-based; conditions: Cavia porcellus; 25 microg/ml
[9] = test system: spontaneously hypertensive rat; assay: spontaneously hypertensive rat, systolic pressure; assay type: in vivo; conditions: orally 100 mg/kg
Method: In the model of the spontaneously hypertensive rat, the product of Example 13, administered orally in a dose of 100 mg/kg, caused a drop in systolic pressure of 14 and 15% respectively after two and four hours. The product of Example 14, administered in a dose of 100 mg/kg under the same conditions, caused a reduction of 21% of the systolic pressure after six hours.

[10] = ip, intraperitoneally 200 mg/kg
[11] = Cavia porcellus, 5 microg/ml of histamine
[12] = ip, intraperitoneally 100 mg/kg

| SMILES | mortality (in vivo; [10]) [%] | mortality (in vivo; po, orally 300 mg/kg) [%] | inhibition at 100 µg/mL [3, 11] [%] | mortality (in vivo; [12]) [%] | other results |
| --- | --- | --- | --- | --- | --- |
| CCN(CC)CC1CN=C(N)O1 (stereo not shown) [Example 1, 2-amino-N,N-5-diethylaminomethyl-2-oxazoline] | 0 | 0 | > 50 |  | inhibition of the Evans blue spot (rats [1]; 100 mg/kg per os): 60%; activation at 100 µg/mL [2]: 100%; intrinsic chronotropic effect [3]: without exhibiting intrinsic chronotropic effect |
| CCCCN(C)CC1CN=C(N)O1 (stereo not shown) [Example 2, 2-amino-5-(N-butyl-N-methylaminomethyl)-2-oxazoline] | 100 | 0 | > 50 | 0 | intrinsic chronotropic effect [3]: without exhibiting intrinsic chronotropic effect |
| NC1=NCC(CN2CCCC2)O1 (stereo not shown) [Example 3, 2-amino-5-pyrrolidinomethyl-2-oxazoline] | 100 | 0 |  | 0 | sodium excretion multiplied by (ratio treated to control animals) (rats [4]): 4.2; inhibition of the Evans blue spot (rats [1]; 10 mg/kg): 53% |
| NC1=NCC(CN2CCCCC2)O1 (stereo not shown) [Example 4, 2-amino-5-piperidinomethyl-2-oxazoline] | 100 | 33 |  | 0 | mortality (in vivo; po, orally 200 mg/kg): 0%; inhibition of the Evans blue spot (rats [1]; 10 mg/kg): 60% |
| CC1CCN(CC2CN=C(N)O2)CC1 (stereo not shown) [Example 5, 2-amino-5-(4-methylpiperidinomethyl)-2-oxazoline] | 100 | 0 |  | 0 |  |
| CCC1CCCCN1CC1CN=C(N)O1 (stereo not shown) [Example 6, 2-amino-5-(2-ethylpiperidinomethyl)-2-oxazoline] | 0 | 0 | > 50 |  | HDL/cholesterol ratio (mice): 1.01; reduction of the HDL-VLDL fraction (mice): 20%; reduction of cholesterolemia (mice; 6th and 7th days): 21%; intrinsic chronotropic effect [3]: without exhibiting intrinsic chronotropic effect |
| NC1=NCC(CN2CCOCC2)O1 (stereo not shown) [Example 7, 2-amino-5-morpholinomethyl-2-oxazoline] |  | 100 |  |  | sodium excretion multiplied by (ratio treated to control animals) (rats [4]): 4.9 |
| CN1CCN(CC2CN=C(N)O2)CC1 (stereo not shown) [Example 10, 2-amino-(4-methylpiperazinyl)-5-methyl-2-oxazoline] | 0 | 0 |  |  |  |
| NC1=NCC(CN2CCN(c3ccccc3)CC2)O1 (stereo not shown) [Example 11] |  |  |  |  | ulcerigenic effect (ulcerigenic effect): very slightly ulcerigenic; inhibition at 25 µg/mL (guinea pig ileum [5]; 25 microg/ml): > 80%; inhibition of carrageenan edema (rats [6]): 35%; inhibition of the stress ulcer (rats [7]): 88%; inhibition at 25 µg/mL (guinea pig ileum [8]): 80% |
| NC1=NCC(CN2CCC(Cc3ccccc3)CC2)O1 (stereo not shown) [Example 12] | 100 | 100 |  | 0 | mortality (in vivo; po, orally 100 mg/kg (footnote 1)): 0% |
| NC1=NCC(CN2CCN(Cc3ccccc3)CC2)O1 (stereo not shown) [Example 13] | 100 | 0 | > 50 | 0 | inhibition at 100 µg/mL (guinea pig ileum [5]; 100 microg/ml): > 80%; drop in systolic pressure ([9]; after four hours): 15%; drop in systolic pressure ([9]; after two hours): 14% |
| C=CCN1CCN(CC2CN=C(N)O2)CC1 (stereo not shown) [Example 14] | 0 | 0 |  |  | reduction of the systolic pressure ([9]; after six hours): 21%; inhibition at 50 µg/mL ([3]; Cavia porcellus, 50 microg/ml, 5 microg/ml of histamine): > 50% |
